Results published in patent US8163768B2, “1,4-dihydropyridine-fused heterocycles, process for preparing the same, use and compositions containing them” (Aventis Pharma S.A.., priority 2005, dated 2012).
pIC50: −log10 of the molar value.

Key:
Aurora2 (Aurora-A) = biological target: T1, Aurora2 (Aurora-A) (Homo sapiens, UniProt O14965); test: Aurora 2 (Aurora A) kinase radioactivity scintillation assay using nickel chelate Flash plates; format: biochemical; conditions: 10 nM Aurora-A, 500 nM NuMA substrate, 1 μM ATP with [33P] ATP, 10 mM MgCl2, 30 minutes, 37° C.
T1 construct: Aurora-A: the full length recombinant protein including an N-terminal poly-histidine tail has been expressed in E. coli; poly-histidine (N); made in house; host or cells: E. coli
T1 sequence (O14965 1-403): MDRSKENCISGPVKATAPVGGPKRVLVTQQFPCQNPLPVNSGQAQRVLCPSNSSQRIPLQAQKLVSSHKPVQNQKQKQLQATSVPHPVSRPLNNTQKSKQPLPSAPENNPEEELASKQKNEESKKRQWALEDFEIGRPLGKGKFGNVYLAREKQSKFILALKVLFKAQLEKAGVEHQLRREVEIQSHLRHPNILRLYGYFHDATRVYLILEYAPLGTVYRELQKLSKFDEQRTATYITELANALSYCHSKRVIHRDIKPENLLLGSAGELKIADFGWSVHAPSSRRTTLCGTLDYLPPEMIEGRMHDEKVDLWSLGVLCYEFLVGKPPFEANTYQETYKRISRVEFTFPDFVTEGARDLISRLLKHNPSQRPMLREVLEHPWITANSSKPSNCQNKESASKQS
Procedure: (§1) Aurora 1 and 2 (Respectively. Aurora B and A)
(§2) The inhibitory effect of compounds with respect to the Aurora 1 and 2 kinases is determined with a radioactivity scintillation assay using nickel chelate.
(§3) The kinase activity of Aurora is measured by the phosphorylation of NuMA-histidine substrate in the presence of radiolabelled ATP ([^33P] ATP) using 96 well Flash plates where the nickel-chelate is linked to the surface of the microplate. The amount of ^33P incorporated to the substrate NuMA is proportional to the aurora activity.
(§4) The Flash plates used are nickel-chelate 96 well plates (Perkin Elmer, model SMP107).
(§5) The products to be evaluated are incubated in a 100 μl reaction volume per well in the presence of 10 nM of Aurora-B or Aurora-A, 500 nM of NuMA substrate in the following buffer: 50 mM of NaCl, 5 mM MgCl2, (Aurora-B) or 10 mM MgCl2 (Aurora-A) and 1 mM of DTT at 37° C.
(§6) 80 μL of enzyme/substrate incubation buffer is distributed in each well, followed by 10 μL of solution of compound to be measured with various concentrations. The reaction is started by adding 1 μM of ATP (final concentration) containing 0.2 μCi of [^33P] ATP (10 μL). After 30 minutes of incubation the reaction is stopped by removal of the reaction mixture and each well is washed twice with 300 μl of buffer Tris/HCl. The radioactivity is measured in each well using a Packard Top count scintillation counter instrument.
(§7) The enzymatic activity is expressed as counts per minute obtained in 30 minutes after subtraction of the background noise (reaction medium without enzyme). The measurement is expressed as percentage of inhibition of Aurora activity versus the control. To generate IC50 values, compounds of the invention are tested at different concentration and the percentage of inhibition are plotted as function of compound concentration, IC50s are calculated using the Xlfit 4 curve fitting software.

Aurora1 (Aurora-B) = biological target: T2, Aurora1 (Aurora-B) (Homo sapiens, UniProt Q96GD4); test: Aurora 1 (Aurora B) kinase radioactivity scintillation assay using nickel chelate Flash plates; format: biochemical; conditions: 10 nM Aurora-B (co expressed with C3 fragment of INCEP), 500 nM NuMA substrate, 1 μM ATP with [33P] ATP, 5 mM MgCl2, 30 minutes, 37° C.
T2 construct: Aurora-B: the full length protein (His tagged in N-terminal) has been co expressed in SF9 cells; poly-histidine (N); made in house; host or cells: SF9 cells
T2 sequence (Q96GD4 whole entry, species assumed, the tested form may be a part): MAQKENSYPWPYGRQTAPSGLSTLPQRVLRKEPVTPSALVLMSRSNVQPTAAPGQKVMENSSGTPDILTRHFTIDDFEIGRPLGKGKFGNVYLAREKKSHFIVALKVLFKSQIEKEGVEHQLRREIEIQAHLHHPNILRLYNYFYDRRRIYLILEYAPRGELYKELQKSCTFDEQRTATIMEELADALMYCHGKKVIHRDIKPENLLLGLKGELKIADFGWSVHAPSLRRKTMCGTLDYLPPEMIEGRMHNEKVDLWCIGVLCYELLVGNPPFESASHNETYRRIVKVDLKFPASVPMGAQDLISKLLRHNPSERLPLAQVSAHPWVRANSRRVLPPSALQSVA
T2 sequence (Q9NQS7 821-918 partner limits assumed, species assumed): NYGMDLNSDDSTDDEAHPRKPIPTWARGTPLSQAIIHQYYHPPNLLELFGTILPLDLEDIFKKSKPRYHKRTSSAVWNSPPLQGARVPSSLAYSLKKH
Procedure: as §1, §2, §3, §4, §5, §6, §7

| SMILES | pIC50 (Aurora2 (Aurora-A)) | pIC50 (Aurora1 (Aurora-B)) |
| --- | --- | --- |
| CC1(C)CC(=O)C2=C(C1)Nc1n[nH]cc1C2c1ccc(Sc2nc3ccccc3[nH]2)o1 (centres unmarked) [Example 4, 4-[5-(1H-Benzimidazol-2-ylsulfanyl)-furan-2-yl]-7,7-dimethyl-2,4,6,7,8,9-hexahydro-pyrazolo[3,4-b]quinolin-5-one] | 7.82 | 8.40 |
| CC1CC(=O)C2=C(C1)Nc1n[nH]cc1C2c1ccc(Sc2nc3ccccc3[nH]2)o1 (centres unmarked) [Example 28, 4-[5-(1H-Benzimidazol-2-ylsulfanyl)-furan-2-yl]-7-methyl-2,4,6,7,8,9-hexahydro-pyrazolo[3,4-b]quinolin-5-one; compound with trifluoro-acetic acid] | 7.77 | 8.30 |
| O=C1CC(c2ccccc2)CC2=C1C(c1ccc(Sc3nc4ccccc4[nH]3)o1)c1c[nH]nc1N2 (centres unmarked) [Example 29, 4-[5-(1H-Benzimidazol-2-ylsulfanyl)-furan-2-yl]-7-phenyl-2,4,6,7,8,9-hexahydro-pyrazolo[3,4-b]quinolin-5-one; compound with trifluoro-acetic acid] | 7.00 | 7.44 |
| CC1(C)CCC2=C(C1=O)C(c1ccc(Sc3nc4ccccc4[nH]3)o1)c1c[nH]nc1N2 (centres unmarked) [Example 30, 4-[5-(1H-Benzimidazol-2-ylsulfanyl)-furan-2-yl]-6,6-dimethyl-2,4,6,7,8,9-hexahydro-pyrazolo[3,4-b]quinolin-5-one; compound with trifluoro-acetic acid] | 7.70 | 8.30 |
| CC(C)C1CC(=O)C2=C(C1)Nc1n[nH]cc1C2c1ccc(Sc2nc3ccccc3[nH]2)o1 (centres unmarked) [Example 31, 4-[5-(1H-Benzimidazol-2-ylsulfanyl)-furan-2-yl]-7-isopropyl-2,4,6,7,8,9-hexahydro-pyrazolo[3,4-b]quinolin-5-one; compound with trifluoro-acetic acid] | 7.85 | 8.40 |
| COc1ccc(C2CC(=O)C3=C(C2)Nc2n[nH]cc2C3c2ccc(Sc3nc4ccccc4[nH]3)o2)cc1 (centres unmarked) [Example 32, 4-[5-(1H-Benzimidazol-2-ylsulfanyl)-furan-2-yl]-7-(4-methoxy-phenyl)-2,4,6,7,8,9-hexahydro-pyrazolo[3,4-b]quinolin-5-one; compound with trifluoro-acetic acid] | 6.90 | 7.30 |
| O=C1CC(c2ccc(Cl)cc2Cl)CC2=C1C(c1ccc(Sc3nc4ccccc4[nH]3)o1)c1c[nH]nc1N2 (centres unmarked) [Example 33, 4-[5-(1H-Benzimidazol-2-ylsulfanyl)-furan-2-yl]-7-(2,4-dichloro-phenyl)-2,4,6,7,8,9-hexahydro-pyrazolo[3,4-b]quinolin-5-one; compound with trifluoro-acetic acid] | 6.75 | 7.49 |
| O=C1CC(c2ccco2)CC2=C1C(c1ccc(Sc3nc4ccccc4[nH]3)o1)c1c[nH]nc1N2 (centres unmarked) [Example 34, 4-[5-(1H-Benzimidazol-2-ylsulfanyl)-furan-2-yl]-7-furan-2-yl-2,4,6,7,8,9-hexahydro-pyrazolo[3,4-b]quinolin-5-one; compound with trifluoro-acetic acid] | 7.64 | 8.30 |
| O=C1CC(c2ccc3c(c2)OCO3)CC2=C1C(c1ccc(Sc3nc4ccccc4[nH]3)o1)c1c[nH]nc1N2 (centres unmarked) [Example 35, 7-Benzo[1,3]dioxol-5-yl-4-[5-(1H-benzimidazol-2-ylsulfanyl)-furan-2-yl]-2,4,6,7,8,9-hexahydro-pyrazolo[3,4-b]quinolin-5-one; compound with trifluoro-acetic acid] | 7.72 | 8.30 |
| COc1ccc(C2CC(=O)C3=C(C2)Nc2n[nH]cc2C3c2ccc(Sc3nc4ccccc4[nH]3)o2)cc1OC (centres unmarked) [Example 36, 4-[5-(1H-Benzimidazol-2-ylsulfanyl)-furan-2-yl]-7-(3,4-dimethoxy-phenyl)-2,4,6,7,8,9-hexahydro-pyrazolo[3,4-b]quinolin-5-one; compound with trifluoro-acetic acid] | 7.39 | 7.96 |
| CCCCCC1CC(=O)C2=C(C1)Nc1n[nH]cc1C2c1ccc(Sc2nc3ccccc3[nH]2)o1 (centres unmarked) [Example 37, 4-[5-(1H-Benzimidazol-2-ylsulfanyl)-furan-2-yl]-7-pentyl-2,4,6,7,8,9-hexahydro-pyrazolo[3,4-b]quinolin-5-one; compound with trifluoro-acetic acid] | 7.54 | 8.15 |
| O=C1CC(c2ccccc2F)CC2=C1C(c1ccc(Sc3nc4ccccc4[nH]3)o1)c1c[nH]nc1N2 (centres unmarked) [Example 38, 4-[5-(1H-Benzimidazol-2-ylsulfanyl)-furan-2-yl]-7-(2-fluoro-phenyl)-2,4,6,7,8,9-hexahydro-pyrazolo[3,4-b]quinolin-5-one; compound with trifluoro-acetic acid] | 7.74 | 8.15 |
| COc1ccccc1C1CC(=O)C2=C(C1)Nc1n[nH]cc1C2c1ccc(Sc2nc3ccccc3[nH]2)o1 (centres unmarked) [Example 39, 4-[5-(1H-Benzimidazol-2-ylsulfanyl)-furan-2-yl]-7-(2-methoxy-phenyl)-2,4,6,7,8,9-hexahydro-pyrazolo[3,4-b]quinolin-5-one; compound with trifluoro-acetic acid] | 6.87 | 7.42 |
| O=C1CCCCC2=C1C(c1ccc(Sc3nc4ccccc4[nH]3)o1)c1c[nH]nc1N2 (centres unmarked) [Example 41, 4-[5-(1H-Benzoimidazol-2-ylsulfanyl)-furan-2-yl]-4,6,7,8,9,10-hexahydro-2H-1,2,10-triaza-cyclohepta[f]inden-5-one; compound with trifluoro-acetic acid] | 7.54 | 8.00 |
| O=C1OCC2=C1C(c1ccc(Sc3nc4ccccc4[nH]3)o1)c1c[nH]nc1N2 (centres unmarked) [Example 42, 4-[5-(1H-Benzoimidazol-2-ylsulfanyl)-furan-2-yl]-2,4,7,8-tetrahydro-6-oxa-1,2,8-triaza-s-indacen-5-one; compound with trifluoro-acetic acid] | 6.29 | 7.77 |
| O=C1CN(CC(O)CN2CCCCC2)CC2=C1C(c1ccc(Sc3nc4ccccc4[nH]3)o1)c1c[nH]nc1N2 (centres unmarked) [Example 45, 4-[5-(1H-Benzimidazol-2-ylsulfanyl)-furan-2-yl]-7-(2-hydroxy-3-piperidin-1-yl-propyl)-2,4,6,7,8,9-hexahydro-pyrazolo[3,4-b]-1,7-naphthyridin-5-one; compound with trifluoro-acetic acid] | 6.05 | 7.37 |
| O=C1CNCC2=C1C(c1ccc(Sc3nc4ccccc4[nH]3)o1)c1c[nH]nc1N2CC(O)CN1CCOCC1 (centres unmarked) [Example 52, 4-[5-(1H-Benzimidazol-2-ylsulfanyl)-furan-2-yl]-9-(2-hydroxy-3-morpholin-4-yl-propyl)-2,4,6,7,8,9-hexahydro-pyrazolo[3,4-b]-1,7-naphthyridin-5-one; compound with trifluoro-acetic acid] | 5.71 | 6.84 |
| CN1C2=C(C(=O)CCC2)C(c2ccc(Sc3nc4ccccc4[nH]3)o2)c2c[nH]nc21 (centres unmarked) [Example 59, 4-[5-(1H-Benzimidazol-2-ylsulfanyl)-furan-2-yl]-9-methyl-2,4,6,7,8,9-hexahydro-pyrazolo[3,4-b]quinolin-5-one; compound with trifluoro-acetic acid] | 5.65 | 6.87 |
| CCOC(=O)c1[nH]cc2c1NC1=C(C(=O)CCC1)C2c1ccc(Sc2nc3c(F)cc(F)cc3[nH]2)o1 (centres unmarked) [Example 142, 9-[5-(4,6-Difluoro-1H-benzimidazol-2-ylsulfanyl)-furan-2-yl]-8-oxo-4,5,6,7,8,9-hexahydro-2H-pyrrolo[3,4-b]quinoline-3-carboxylic acid ethyl ester] | – | 8.52 |
| CCOC(=O)c1[nH]cc2c1NC1=C(C(=O)CCC1)C2c1ccc(Sc2nc3cc(F)ccc3[nH]2)o1 (centres unmarked) [Example 148, 9-[5-(5-Fluoro-1H-benzimidazol-2-ylsulfanyl)-furan-2-yl]-8-oxo-4,5,6,7,8,9-hexahydro-2H-pyrrolo[3,4-b]quinoline-3-carboxylic acid ethyl ester] | – | 7.96 |
